Read-outs that look alike come from different tables or passages of the source.
How the values were obtained:
[1] = in vivo, po
Description: (§1) The Mouse Hypercalcemia Assay is a six day hypercalcemia test for toxicity and selectivity. Acceptable test results are levels greater than 300 μg/kg/day. Preferred assay results are levels greater than 1000 μg/day.
(§2) (4) Materials and Method for the Mouse Hypercalcemia Assay:
(§3) Weanling, virus—antibody-free, five to six weeks old female DBF mice (Harlan, Indianapolis, Ind.) are used for all the studies. Animals are allowed to acclimate to local vivarium conditions for 2 days. […] The animals then are divided into groups with 4-5 mice per group. Different doses of test compounds prepared in 10% Ethanol and 90% sesame oil are administered to mice orally via gavage for 6 days. 1α-25(OH)2D3 0.5 μg/kg/d was also given to one group of mice as the positive control. […] Raw data of group differences is assessed by analysis of variance (ANOVA) using Fisher's protected least significant difference (PLSD) where the significance level was P<0.05.

[2] = Mouse hypercalcemia assay; conditions: oral gavage for 6 days, serum ionized calcium 6 hours after last dosing
Description: as §1, §2, §3

RXR-VDR heterodimer = target: T1, RXR-VDR heterodimer (Homo sapiens, UniProt P11473); experiment: RXR-VDR heterodimerization assay (SaOS-2 cells); assay type: cell-based; conditions: Gal4-RXR-DEF / VP16-VDR-LBD, luciferase reporter
T1 construct: Add the Gal4-RXR-DEF and VP16-VDR-LBD; expressed in transfected cells; host or cells: SaOS-2 cells
T1 sequence (P11473 127-423 limits assumed): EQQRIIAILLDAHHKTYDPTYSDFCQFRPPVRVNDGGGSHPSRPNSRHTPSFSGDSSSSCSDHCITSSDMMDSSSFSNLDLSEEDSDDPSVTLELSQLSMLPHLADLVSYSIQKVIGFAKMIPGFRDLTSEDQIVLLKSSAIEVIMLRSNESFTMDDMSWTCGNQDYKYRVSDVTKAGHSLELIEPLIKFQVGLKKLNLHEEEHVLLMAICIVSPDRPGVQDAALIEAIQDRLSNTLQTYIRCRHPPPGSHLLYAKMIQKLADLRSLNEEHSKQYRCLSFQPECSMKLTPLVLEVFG
T1 sequence (P19793 201-462 partner limits assumed): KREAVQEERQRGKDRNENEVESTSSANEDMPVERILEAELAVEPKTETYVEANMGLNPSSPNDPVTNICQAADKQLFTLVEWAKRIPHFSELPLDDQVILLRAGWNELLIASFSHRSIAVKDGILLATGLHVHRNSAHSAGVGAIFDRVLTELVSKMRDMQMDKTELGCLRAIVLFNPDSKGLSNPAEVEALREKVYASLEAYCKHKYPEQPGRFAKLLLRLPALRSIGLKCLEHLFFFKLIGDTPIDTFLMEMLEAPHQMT
Text: 1. The RXR-VDR heterodimer Assay:
This assay provides the VDR activity of a test compound.
(1) Materials and Method for RXR-VDR Heterodimerization Assay:
Luciferase Assay Reagent: • Use Steady-Glo Luciferase Reagent from Promega (Cat # E2550) Consists of:
Add plain DMEM media to tubes for mixing the DNA
Add the Reporter gene pFR-LUC
Add the Gal4-RXR-DEF and VP16-VDR-LBD
Make a stock solution of the compounds in DMSO
Further dilute in D-MEM (Low Glucose—With out Phenol Red)
Read the plates after drug treatment
Add Steady-Glo Luciferase Reagent mixture/wells
Count each well using a Luminescence counter, Top Count NXT by Packard

VDR = target: T2, VDR (Homo sapiens, UniProt P11473); experiment: Caco-2 cell co-transfection assay (VDR CTF); assay type: cell-based; conditions: Caco-2 cells, pGal4-VDR-LBD co-transfection, luciferase reporter
T2 construct: the receptor expression vector pGal4-VDR-LBD (10 ng); expressed in transfected cells; host or cells: Caco-2 cells
T2 sequence (P11473 127-423 limits assumed): T1 sequence (P11473 127-423 limits assumed)
Description: 2. The Caco-2 Cell Co-Transfection Assay:
The Caco-2 cell assay is an indicator for the undesirable condition of hypercalcemia. This co-transfection assay is a surrogate assay for in vivo calcemic activity of VDR ligands. […] Preferred assay results are greater than 1000 nM.
(2) Materials and Method for The Caco-2 Cell Assay:
Caco-2 cells, grown in phenol red free, DMEM (Invitrogen, Carlsbad, Calif.) containing 10% charcoal-stripped FCS (Hyclone, Logan, Utah), were transfected with Fugene 6 reagent (Roche Diagnostics, Indianapolis, Ind.). Cells (5000/well) were plated 18 h before transfection in a 96 well plate. The Cells were transfected with Gal4-responsive reporter pFRLuc (150 ng, Stratagene, La Jolla Calif.) and the receptor expression vector pGal4-VDR-LBD (10 ng), along with Fugene 6 reagent (0.2 μl/well). The DNA-Fugene complex was formed by incubating the mixture for 30 min at room temperature. The cells were transfected in triplicate for 5 h, and treated with various concentrations of VDR ligands (form 0.01 nM to 10,000 nM concentration range) 18 h post-transfection. The luciferase activity was quantified using Steady-Glo reagent kit (Promega, Madison, Wis.) as per manufacturer's specifications.

KERtr cells = experiment: Keratinocyte proliferation assay; assay type: cell-based; conditions: Homo sapiens, 72 hr, BrdU incorporation, read-out: Kera. Prolif. IC50
Description: 5. The Keratinocte Proliferation Assay
This Assay is indicative for the treatment of psoriasis.
(5) The Keratinocyte Proliferation Assay:
KERtr cells (Human skin keratinocyte transformed with a retrovirus vector, obtained from ATCC) were plated in 96-well flat-bottomed plates (3000 cells/well) in 100 µl keratinocyte serum free medium supplemented with bovine pituitary extract in the absence of EGF (Life Technologies, Rockville, Md.) and incubated at 37° C. for two days. The cells were treated with various concentrations of VDR ligands (ten-fold serial dilution from 10,000 nM to 0.1 nM in triplicate), dissolved in 100 μl keratinocyte serum free medium supplemented with bovine pituitary extract in the absence of EGF and incubated at 37° C. for 72 hr. BrdU (5-bromo-2′-deoxyuridine) incorporation was analyzed as a measure of DNA replication (Cell proliferation ELISA kit, Roche Diagnostics, Indianapolis, Ind.) and absorbance was measured at 405 nm. Potency values (IC50) values were determined as the concentration (nM) of compound that elicited a half-maximal response.

rat osteocalcin promoter = experiment: OCN (osteocalcin) promoter assay; assay type: cell-based; conditions: RG-15 (ROS 17/2.8) cells, 48 hr treatment, luciferase reporter
Description: 3. The OCN (osteocalcin) Promoter Assay
The OCN Promoter Assay is an indicator and marker for osteoporosis. […] Preferred assay results are less than 50 nM.
(3) Materials and Method for the OCN Promoter Assay:
The activation of osteocalcin by VDR ligands was evaluated in a rat osteoblast-like cell line RG-15 (ROS 17/2.8) stably expressing rat osteocalcin promoter fused with luciferase reporter gene. […] Confluent RG-15 cells maintained in DMEM/F-12 medium (3:1) containing 5% FBS, 300 μg/ml G418 and at 37° C. under 5% CO2/95% air atmosphere were trypsinized (0.25% trypsin) and plated into white opaque 96-well cell culture plates (25000 cells/well). After 24 hr, cells (in DMEM/F-12 medium+2% FBS) were treated with various concentrations of compounds, dissolved in DMSO. The final DMSO concentration remained at 0.01% (v/v). After 48 hr treatment, the medium was removed, cells were lysed with 50 μl of lysis buffer (From Luciferase reporter assay system, Roche Diagnostics, Indianapolis, Ind.) and assayed for luciferase activity using the Luciferase Reporter Gene Assay kit from Boehringer Mannheim as per manufacturer's specifications.

[3] = test system: IL-10 production in PBMCs; experiment: IL-10 induction assay; assay type: cell-based; conditions: PBMC; TPA/PHA stimulated human PBMCs, IL-10 immunoassay
Text: 6. The IL-10 induction Assay
This is an in vitro efficacy assay for psoriasis, abscess and adhesion. Psoriasis involves both keratinocytes and immune cells. IL-10 is a unique cytokine because it is anti-inflammatory and immunosuppressive. This assay tells us whether a VDRM is able to function as an agonist in PBMCs (primary blood mononuclear cells) or not. A lower EC50 value is desirable in this assay since a compound with a lower EC50 value will be a better agonist in PBMCs.
(6) Materials and Method for Human IL-10 Induction Assay:
Isolation of Peripheral Blood Mononuclear Cells (PBMCs):
• A. Collect 50 ml of human blood and dilute with media, RPMI-1640. • B. Prepare sterile tubes with ficol. • C. Add diluted blood to tubes. • D. Centrifuge. • E. Discard the top layer and collect the cells from middle layer. • F. Divide all cells into four tubes and add media. • G. Centrifuge. • H. Aspirate off media and resuspend. • I. Collect all cells • J. Centrifuge. at 1200 rpm for 10 minutes. • K. Resuspend in RPMI-1640 with 2% FBS and count cells • Stimulation of PBMC: • L. Prepare TPA in DMSO. • M. Dissolve PHA in water. • N. Plate TPA/PHA treated PBMCs in well plates. • O. Incubate.
Treatment: • P. Prepare all compound dilutions in plain RPMI-1640 media. • Q. Add diluted compound. • R. Incubate. […]

Row | Structure (SMILES) | Mouse Hypercal [1] | Mouse Hypercal [2] | EC50 (RXR-VDR heterodimer) | EC50 (VDR) | IC50 (KERtr cells) | EC50 (rat osteocalcin promoter; Rattus norvegicus, 48 h) | IC50 [3] | EC50 (rat osteocalcin promoter)
1 | C=C1/C(=C\C=C2/CCC[C@]3(C)[C@@H]([C@H](C)CCCC(C)(C)O)CC[C@@H]23)C[C@@H](O)C[C@@H]1O [AA, 1α,25-dihydroxyvitamin D3] | 0.06 µg/kg/day |  |  |  |  |  |  | 
2 | CCCS(=O)(=O)Nc1ccc(C(CC)(CC)c2ccc(OCC(=O)C(C)(C)C)c(C)c2)cc1C [Ex. 26, N-(4-{1-[4-(3,3-Dimethyl-2-oxo-butoxy)-3-methyl-phenyl]-1-ethyl-propyl}-2-methyl-phenyl)-1-propanesulfonamide] |  | <1000 µg/kg/day | 5.7 nM | 333 nM | 4.4 nM | 3.69 nM |  | 
3 | CCC(CC)(c1ccc(OS(C)(=O)=O)cc1)c1ccc(OCC(=O)C(C)(C)C)c(Cl)c1 [Ex. 42, 3′-[3-chloro-4-(2-oxo-3,3-dimethylbutoxy)phenyl]-3′-[4-(methylsulfonyloxy)phenyl]pentane] |  | <1000 µg/kg/day | 495 nM | 728 nM | 9 nM | 25.1 nM |  | 
4 | CCC(CC)(c1ccc(OS(=O)(=O)C(F)(F)F)cc1)c1ccc(OCC(O)C(C)(C)C)c(Cl)c1 (stereo not shown) [Ex. 47, 53, 3′-[3-chloro-4-(2-hydroxy-3.3-dimethylbutoxy)phenyl]-3′-(4-trifluoromethylsulfonyloxyphenyl)pentane] |  |  | 12.5 nM | 431 nM | 300 nM | 92.5 nM |  | 
5 | CCC(CC)(c1ccc(OCC(=O)C(C)(C)C)c(C)c1)c1ccc(N(C)S(C)(=O)=O)c(C)c1 [Ex. 18, N-(4-{1-[4-(3,3-Dimethyl-2-oxo-butoxy)-3-methyl-phenyl]-1-ethyl-propyl}-2-methyl-phenyl)-N-methyl-methanesulfonamide] |  | 1500 µg/kg/day | 69.6 nM | 485 nM | 32 nM | 7.62 nM |  | 
6 | CCCS(=O)(=O)N(c1ccc(C(CC)(CC)c2ccc(OCC(=O)C(C)(C)C)c(C)c2)cc1C)S(=O)(=O)CCC [Ex. 25, N-(4-{1-[4-(3,3-Dimethyl-2-oxo-butoxy)-3-methyl-phenyl]-1-ethyl-propyl}-2-methyl-phenyl)-N,N-bis-1-propanesulfonamide] |  |  | 47.3 nM | 1290 nM | 14.6 nM | 34.2 nM |  | 
7 | CCC(CC)(c1ccc(OS(C)(=O)=O)cc1)c1ccc(OCC(O)C(C)(C)C)c(Cl)c1 (single isomer, unassigned) [Ex. 45, 51B, 3′-[3-chloro-4-(2-hydroxy-3,3-dimethylbutoxy)phenyl]-3′-(4-methylsulfonyloxyphenyl)pentane] |  |  | 24 nM | 353 nM | 27 nM |  | 39.5 nM | 13 nM
8 | CCC(CC)(c1ccc(OCC(=O)C(C)(C)C)cc1)c1ccc(OS(C)(=O)=O)c(C)c1 [Ex. 36, 3′-[4-(2-oxo-3,3-dimethylbutoxy)-phenyl]-3′-[4-methylsulfonyloxy-3-methylphenyl]pentane] |  | >3000 µg/kg/day | 15.2 nM | 592 nM | 36 nM | 45.5 nM |  | 
